In patent US20250098679A1, “HERBICIDAL PYRIDONE DERIVATIVES” (SYNGENTA CROP PROTECTION AG, priority 2021, published 2025):

What was measured:
Type in all cases: in vivo
Settings in all cases: evaluated after 13 days
[1] = system: Ipomoea hederacea (IPOHE); assay: Pre-emergence Test, Ipomoea hederacea (IPOHE)
[2] = system: Amaranthus palmeri (AMAPA); assay: Post-emergence Test, Amaranthus palmeri (AMAPA); design: key: 5=81-100%, 4=61-80%, 3=41-60%, 2=21-40%, 1=0-20% damage
Method in brief: (§1)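 Percent plant damage was rated 13 days post-application on a 1–5 scale (1=0-20%, 5=81-100%). Application used an aqueous acetone (50:50)/0.5% Tween 20 spray, normally 1000 g/ha, with controlled glasshouse conditions (24/16 °C, 14 h light, 65% humidity).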

Zea mays (ZEAMX) [3] = assay: Pre-emergence Test, Zea mays (ZEAMX)
[4] = system: Amaranthus palmeri (AMAPA); assay: Pre-emergence Test, Amaranthus palmeri (AMAPA)
[5] = system: Echinochloa crus-galli (ECHCG); assay: Post-emergence Test, Echinochloa crus-galli (ECHCG); design: key to percentage damage caused to the plant, ECHCG (five-point scale): 5=81-100%, 4=61-80%, 3=41-60%, 2=21-40%, 1=0-20% damage
Method in brief: as §1

Setaria faberi (SETFA) [6] = assay: Post-emergence Test, Setaria faberi (SETFA); design: key to percentage damage caused to the plant, SETFA (five-point scale): 5=81-100%, 4=61-80%, 3=41-60%, 2=21-40%, 1=0-20% damage
Method in brief: as §1

Setaria faberi (SETFA) [7] = assay: Pre-emergence Test, Setaria faberi (SETFA)
[8] = system: Echinochloa crus-galli (ECHCG); assay: Pre-emergence Test, Echinochloa crus-galli (ECHCG)
[9] = system: Ipomoea hederacea (IPOHE); assay: Post-emergence Test, Ipomoea hederacea (IPOHE); design: key to percentage damage caused to the plant, IPOHE (five-point scale): 5=81-100%, 4=61-80%, 3=41-60%, 2=21-40%, 1=0-20% damage
Method in brief: as §1

[10] = system: Amaranthus retoflexus (AMARE); assay: Post-emergence Test, Amaranthus retoflexus (AMARE); design: key to percentage damage caused to the plant, AMARE (five-point scale): 5=81-100%, 4=61-80%, 3=41-60%, 2=21-40%, 1=0-20% damage
Method in brief: as §1

Zea mays (ZEAMX) [11] = assay: Post-emergence Test, Zea mays (ZEAMX); design: key to percentage damage caused to the plant, ZEAMX (five-point scale): 5=81-100%, 4=61-80%, 3=41-60%, 2=21-40%, 1=0-20% damage
Method in brief: as §1

[12] = system: Amaranthus retoflexus (AMARE); assay: Pre-emergence Test, Amaranthus retoflexus (AMARE)

| SMILES | Pre-emergence Test IPOHE, percentage damage caused to the plant (five-point scale) ([1]; 1000 g/ha) | percentage damage caused to the plant, AMAPA (five-point scale) ([2]; 1000 g/ha) | Pre-emergence Test ZEAMX, percentage damage caused to the plant (five-point scale) (Zea mays (ZEAMX) [3]; 1000 g/ha) | Pre-emergence Test AMAPA, percentage damage caused to the plant (five-point scale) ([4]; 1000 g/ha) | percentage damage caused to the plant, ECHCG (five-point scale) ([5]; 1000 g/ha) | percentage damage caused to the plant, SETFA (five-point scale) (Setaria faberi (SETFA) [6]; 1000 g/ha) | Pre-emergence Test SETFA, percentage damage caused to the plant (five-point scale) (Setaria faberi (SETFA) [7]; 1000 g/ha) | Pre-emergence Test ECHCG, percentage damage caused to the plant (five-point scale) ([8]; 1000 g/ha) | percentage damage caused to the plant, IPOHE (five-point scale) ([9]; 1000 g/ha) | percentage damage caused to the plant, AMARE (five-point scale) ([10]; 1000 g/ha) | percentage damage caused to the plant, ZEAMX (five-point scale) (Zea mays (ZEAMX) [11]; 1000 g/ha) | Pre-emergence Test AMARE, percentage damage caused to the plant (five-point scale) ([12]; 1000 g/ha) | percentage damage caused to the plant, AMAPA (five-point scale) ([2]; 250 g/Ha) | percentage damage caused to the plant, ECHCG (five-point scale) ([5]; 250 g/Ha) | percentage damage caused to the plant, SETFA (five-point scale) (Setaria faberi (SETFA) [6]; 250 g/Ha) | percentage damage caused to the plant, IPOHE (five-point scale) ([9]; 250 g/Ha) | percentage damage caused to the plant, AMARE (five-point scale) ([10]; 250 g/Ha) | percentage damage caused to the plant, ZEAMX (five-point scale) (Zea mays (ZEAMX) [11]; 250 g/Ha) | Pre-emergence Test IPOHE, percentage damage caused to the plant (five-point scale) ([1]; 250 g/Ha (*)) | Pre-emergence Test ZEAMX, percentage damage caused to the plant (five-point scale) (Zea mays (ZEAMX) [3]; 250 g/Ha (*)) | other results |
| --- | --- | --- | --- | --- | --- | --- | --- | --- | --- | --- | --- | --- | --- | --- | --- | --- | --- | --- | --- | --- | --- |
| CCOC(=O)c1c(-c2ccc(Cl)c(Cl)c2)n(CC)c(Cn2cnc(C(F)(F)F)n2)cc1=O [Compound 12, ethyl 2-(3,4-dichlorophenyl)-1-ethyl-4-oxo-6-[[3-(trifluoromethyl)-1,2,4-triazol-1-yl]methane]pyridine-3-carboxylate] | 0 | 2 (2=21-40%) | 0 | 0 | 1 (1=0-20%) | 1 (1=0-20%) | 0 | 0 | 2 (2=21-40%) | 1 (1=0-20%) | 1 (1=0-20%) | 0 |  |  |  |  |  |  |  |  |  |
| CCOC(=O)c1c(-c2cccc(Cl)c2)n(CC)c(Cn2ccc(C(F)(F)F)n2)cc1=O [Compound 26, ethyl 2-(3-chlorophenyl)-1-ethyl-4-oxo-6-[[3-(trifluoromethyl)pyrazol-1-yl]methyl]pyridine-3-carboxylate] | 0 | 2 (2=21-40%) | 1 (1=0-20%) | 0 | 1 (1=0-20%) | 1 (1=0-20%) | 3 (3=41-60%) | 2 (2=21-40%) | 3 (3=41-60%) | 1 (1=0-20%) | 2 (2=21-40%) | 0 | 1 (1=0-20%) | 1 (1=0-20%) | 1 (1=0-20%) | 1 (1=0-20%) | 1 (1=0-20%) | 1 (1=0-20%) |  |  |  |
| CCn1c(Cn2ccc(C(F)(F)F)n2)cc(=O)c(C(=O)O)c1-c1ccc(Cl)c(Cl)c1 [Compound 2, 2-(3,4-dichlorophenyl)-1-ethyl-4-oxo-6-[[3-(trifluoromethyl)pyrazol-1-yl]methyl]pyridine-3-carboxylic acid] | 3 (3=41-60%) | 4 (4=61-80%) | 4 (4=61-80%) | 3 (3=41-60%) | 4 (4=61-80%) | 5 (5=81-100%) | 5 (5=81-100%) | 5 (5=81-100%) | 4 (4=61-80%) | 4 (4=61-80%) | 4 (4=61-80%) | 3 (3=41-60%) | 3 (3=41-60%) | 4 (4=61-80%) | 4 (4=61-80%) | 3 (3=41-60%) | 3 (3=41-60%) | 4 (4=61-80%) | 4 (4=61-80%) | 4 (4=61-80%) | Pre-emergence Test AMAPA, percentage damage caused to the plant (five-point scale) ([4]; 250 g/Ha (*)): 0; Pre-emergence Test SETFA, percentage damage caused to the plant (five-point scale) (Setaria faberi (SETFA) [7]; 250 g/Ha (*)): 5 (5=81-100%); Pre-emergence Test ECHCG, percentage damage caused to the plant (five-point scale) ([8]; 250 g/Ha (*)): 5 (5=81-100%); Pre-emergence Test AMARE, percentage damage caused to the plant (five-point scale) ([12]; 250 g/Ha (*)): 1 (1=0-20%) |
| CCn1c(Cn2nc(C)cc2C)cc(=O)c(C(=O)O)c1-c1ccc(Cl)c(Cl)c1 [Compound 39, 2-(3,4-dichlorophenyl)-6-[(3,5-dimethylpyrazol-1-yl)methyl]-1-ethyl-4-oxo-pyridine-3-carboxylic acid] | 2 (2=21-40%) | 2 (2=21-40%) | 0 | 1 (1=0-20%) | 4 (4=61-80%) | 4 (4=61-80%) | 3 (3=41-60%) | 4 (4=61-80%) | 2 (2=21-40%) | 2 (2=21-40%) | 4 (4=61-80%) | 1 (1=0-20%) | 1 (1=0-20%) | 3 (3=41-60%) | 1 (1=0-20%) | 2 (2=21-40%) | 2 (2=21-40%) | 0 |  |  |  |
| CCCOc1ccn(Cc2cc(=O)c(C(=O)O)c(-c3ccc(Cl)c(Cl)c3)n2CC)n1 [Compound 160, 2-(3,4-dichlorophenyl)-1-ethyl-4-oxo-6-[(3-propoxypyrazol-1-yl)methyl]pyridine-3-carboxylic acid] | 2 (2=21-40%) | 1 (1=0-20%) | 3 (3=41-60%) | 0 | 4 (4=61-80%) | 4 (4=61-80%) | 5 (5=81-100%) | 5 (5=81-100%) | 3 (3=41-60%) | 1 (1=0-20%) | 4 (4=61-80%) | 1 (1=0-20%) | 0 | 2 (2=21-40%) | 2 (2=21-40%) | 3 (3=41-60%) | 0 | 1 (1=0-20%) | 2 (2=21-40%) | 0 | Pre-emergence Test AMAPA, percentage damage caused to the plant (five-point scale) ([4]; 250 g/Ha (*)): 0; Pre-emergence Test SETFA, percentage damage caused to the plant (five-point scale) (Setaria faberi (SETFA) [7]; 250 g/Ha (*)): 2 (2=21-40%); Pre-emergence Test ECHCG, percentage damage caused to the plant (five-point scale) ([8]; 250 g/Ha (*)): 2 (2=21-40%); Pre-emergence Test AMARE, percentage damage caused to the plant (five-point scale) ([12]; 250 g/Ha (*)): 0 |
| CCn1c(Cn2cncc2Cl)cc(=O)c(C(=O)O)c1-c1ccc(Cl)c(Cl)c1 [Compound 79, 6-[(5-chloroimidazol-1-yl)methyl]-2-(3,4-dichlorophenyl)-1-ethyl-4-oxo-pyridine-3-carboxylic acid] |  |  |  |  |  |  |  |  |  |  |  |  | 0 | 1 (1=0-20%) | 0 | 1 (1=0-20%) | 1 (1=0-20%) | 1 (1=0-20%) | 0 | 0 | Pre-emergence Test AMAPA, percentage damage caused to the plant (five-point scale) ([4]; 250 g/Ha (*)): 1 (1=0-20%); Pre-emergence Test SETFA, percentage damage caused to the plant (five-point scale) (Setaria faberi (SETFA) [7]; 250 g/Ha (*)): 1 (1=0-20%); Pre-emergence Test ECHCG, percentage damage caused to the plant (five-point scale) ([8]; 250 g/Ha (*)): 1 (1=0-20%); Pre-emergence Test AMARE, percentage damage caused to the plant (five-point scale) ([12]; 250 g/Ha (*)): 0 |
